Data set [1] has as its system vincristine-resistant leukemias. As to conditions: marketed oncolytic agent; cited from earlier work.
The next data set has as its system 6C3HED lymphosarcoma. In words: activity against transplanted tumor 6C3HED lymphosarcoma in mice. Particulars: intravenous, day one. The format is in vivo. The procedure: Certain of the above compounds have also shown activity against a transplanted tumor, 6C3HED lymphosarcoma, in mice. Information as to this activity is summarized in Table 2 in which column 1 gives the name of the compound, column 2, the dose level in mg./kg. and column 3 the percent tumor inhabitation. All compounds were administered on day one by the intravenous route.

A short description of another data set: pKa (66% DMF). The format is physicochemical.
The subject of data set [2] is human leukemic cells (CCRF-CEM cell line). Nature of the data set: C.C.R.F.-C.E.M. Cytotoxicity Assay, growth inhibition of human leukemic cells. Type of data set: cell-based. As to conditions: read-out: IC50 (concentration giving 50% growth inhibition). An excerpt:
In the Table, column 1 gives the name of the compound and column 2, the IC50 (concentration giving 50% growth inhibition) in mcg/ml.

Another data set deals with growing tumor cells. In words: metaphase arrest, block of growing tumor cells in mitosis. Particulars: standard procedures; read-out: concentration at which compound blocked growing tumor cells in mitosis (metaphase arrest). Type of data set: cell-based. The procedure:
The compounds of this invention in which Z is OH, NH2, NHNH2, or O--C1-3 alkyl have utility as anti-tumor compounds acti transplanted tumors in mice, as mitotic inhibitors and as cytotoxic agents. As evidence of such utility, the ability of N^2 -succinoyl 4-desacetyl VLB 3-carboxhydrazide methyl ester sulfate to cause metaphase arrest was measured by standard procedures.

Values after ≈ are worked out from the molar mass of the structure shown. Structures can show the parent of a compound that is named as a salt.

Data on 7 compounds can be found in patent publication US4675400A, “Bifunctional derivatives of 4-desacetyl indole-dihydroindole alkaloids” (Eli Lilly and Company, priority 1985, dated 1987).

With `CC[C@]1(O)C[C@@H]2CN(CCc3c([nH]c4ccccc34)[C@@](C(=O)OC)(c3cc4c(cc3OC)N(C)[C@H]3[C@@](O)(C(N)=O)[C@H](O)[C@]5(CC)C=CCN6CC[C@]43[C@@H]65)C2)C1` [vindesine, 4-desacetyl VLB 3-carboxamide], in data set [1], the “effectiveness in treating leukemias and neoplasms” value is “effective in treating some vincristine-resistant leukemias in addition to many common neoplasms including germ-cell tumors”.
In the case of `CC[C@]1(O)C[C@@H]2CN(CCc3c([nH]c4ccccc34)[C@@](C(=O)OC)(c3cc4c(cc3OC)N(C)[C@H]3[C@@](O)(C(=O)NNC(=O)CCC(=O)O)[C@H](O)[C@]5(CC)C=CCN6CC[C@]43[C@@H]65)C2)C1` [N^2 --Succinoyl 4-desacetyl VLB 3-carboxhydrazide sulfate], the “% Tumor Inhibition” value with 6C3HED lymphosarcoma (0.625 mg/kg) worked out at 13%; with 6C3HED lymphosarcoma (1.25 mg/kg), 5%; with 6C3HED lymphosarcoma (2.5 mg/kg), 5%; with 6C3HED lymphosarcoma (5 mg/kg), 33%; in the data set with 6C3HED lymphosarcoma (10 mg/kg), 77%; with 6C3HED lymphosarcoma (20 mg/kg), 100%. Further, the “% Tumor Inhibition” value in the data set on 6C3HED lymphosarcoma (40 mg/kg) is reported as 100%.
By pKa is commonly meant the pH at which an ionisable group is half protonated. For the compound `CC[C@]1(O)C[C@@H]2CN(CCc3c([nH]c4ccccc34)[C@@](C(=O)OC)(c3cc4c(cc3OC)N(C)[C@H]3[C@@](O)(C(=O)NNC(=O)CCC(=O)O)[C@H](O)[C@]5(CC)C=CCN6CC[C@]43[C@@H]65)C2)C1` [Example 1, N^2 -Succinoyl-4-desacetyl VLB 3-carboxhydrazide], the pKa in the data set “pKa (66% DMF)” amounted to 5.1.
As for `CC[C@]1(O)C[C@@H]2CN(CCc3c([nH]c4ccccc34)[C@@](C(=O)OC)(c3cc4c(cc3OC)N(C)[C@H]3[C@@](O)(C(=O)NNC(=O)CCCCC(=O)OC)[C@H](O)[C@]5(CC)C=CCN6CC[C@]43[C@@H]65)C2)C1` [N^2-adipoyl-4-desacetyl VLB 3-carboxyhydrazide methylester], the IC50 in data set [2] is 0.4 µg/mL (≈ 0.439 µM).
Still for that read-out and setting: as for `CC[C@]1(O)C[C@@H]2CN(CCc3c([nH]c4ccccc34)[C@@](C(=O)OC)(c3cc4c(cc3OC)N(C)[C@H]3[C@@](O)(C(=O)NNC(=O)CCCC(=O)O)[C@H](O)[C@]5(CC)C=CCN6CC[C@]43[C@@H]65)C2)C1` [N^2-glutaroyl 4-desacetyl VLB 3-carboxhydrazide sulfate], the figure is 0.1 µg/mL.
Consider `CC[C@]1(O)C[C@@H]2CN(CCc3c([nH]c4ccccc34)[C@@](C(=O)OC)(c3cc4c(cc3OC)N(C)[C@H]3[C@@](O)(C(=O)NNC(=O)CCCC(=O)O)[C@H](O)[C@]5(CC)C=CCN6CC[C@]43[C@@H]65)C2)C1` [Example 8, N^2 -Glutaroyl 4-desacetyl VLB 3-carboxhydrazide], for which the pKa in the data set “pKa (66% DMF)” came to 4.8.
`CC[C@]1(O)C[C@@H]2CN(CCc3c([nH]c4ccccc34)[C@@](C(=O)OC)(c3cc4c(cc3OC)N(C)[C@H]3[C@@](O)(C(=O)NNC(=O)CCC(=O)OC)[C@H](O)[C@]5(CC)C=CCN6CC[C@]43[C@@H]65)C2)C1` [N^2-succinoyl 4-desacetyl VLB 3-carboxhydrazide methyl ester]: the minimal effective concentration with growing tumor cells came out at 0.2 µg/mL. For the same compound, the “% Tumor Inhibition” value in the data set on 6C3HED lymphosarcoma (1 mg/kg) and in the data set with 6C3HED lymphosarcoma (.5 mg/kg) was 100% each time. Further, the “% Tumor Inhibition (toxic dose)” value in the data set with 6C3HED lymphosarcoma (2 mg/kg) and with 6C3HED lymphosarcoma (4 mg/kg) was “Toxic” throughout.
